Assay results from US20080255206A1, “Rxr Agonists and Antagonists, Alone or in Combination with Ppar Ligands, in the Treatment of Metabolic and Cardiovascular Diseases” (priority 2005, published 2008).

Legend:
RXRα Homodimer = target: T1, RXRα Homodimer (Homo sapiens, UniProt P19793); assay: RXRα homodimer activation (transactivation) assay; format: cell-based
T1 construct: expressed in transfected cells; host or cells: mammalian cells (BHK21, CV1, etc)
T1 sequence (P19793 1-462): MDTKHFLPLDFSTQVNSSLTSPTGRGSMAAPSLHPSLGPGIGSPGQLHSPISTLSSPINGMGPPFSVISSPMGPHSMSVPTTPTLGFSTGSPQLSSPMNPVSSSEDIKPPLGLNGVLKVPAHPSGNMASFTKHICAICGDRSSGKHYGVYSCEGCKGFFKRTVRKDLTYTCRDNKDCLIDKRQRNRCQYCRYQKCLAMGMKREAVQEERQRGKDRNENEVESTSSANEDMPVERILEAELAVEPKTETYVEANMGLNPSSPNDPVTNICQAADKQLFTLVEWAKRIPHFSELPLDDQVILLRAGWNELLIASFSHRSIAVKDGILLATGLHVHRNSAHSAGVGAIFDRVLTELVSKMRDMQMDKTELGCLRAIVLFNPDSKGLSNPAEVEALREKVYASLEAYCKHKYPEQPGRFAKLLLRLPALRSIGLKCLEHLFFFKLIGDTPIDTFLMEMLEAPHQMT
Excerpt: (§1) Nuclear hormone receptor (NHR) ligand dependent transcriptional transactivation assay.
This secondary in vitro functional assay to characterize hits from the primary ligand binding screens is a GAL4-LBD transactivation assay. The Gal4-LBD protein consists of an in frame fusion of the transcription factor galactose 4 DNA binding domain from S.cerevisiae with the ligand binding domain (LBD) of a particular NHR. Briefly, a plasmid construct expressing the recombinant chimeric receptor is co-transfected into mammalian cells (BHK21, CV1, etc) with a luciferase reporter plasmid containing several copies in tandem of the GAL4 binding sites (promoter recognition elements) upstream from the minimal promoter driving the luciferase gene. The transfected cells are treated with compounds for 12-24 hours, lysates are produced and assayed for luciferase activity and normalized to internal standards such as GH, growth hormone or SEAP, secreted alkaline phosphatase. Ligand binding stabilizes the LBD conformation that recruits endogenous co-factors that mediate eventually the increased transcriptional activity of the luciferase reporter gene. By comparing the activation profile of a reference ligand or a natural ligand, the EC50 values for agonistic activity of a particular ligand can be measured. The extent of activation that can be measured is indicative of a partial, respectively full agonistic activity of a ligand. […]

PPARγ/RXRα Heterodimer = target: T2, PPARγ/RXRα Heterodimer (Homo sapiens, UniProt P19793); assay: PPARγ/RXRα heterodimer activation (transactivation) assay; format: cell-based
T2 construct: co-transfected with plasmids expressing the full length RXR heteropartner receptor; expressed in transfected cells
T2 sequence (P19793 1-462): T1 sequence (P19793 1-462)
T2 sequence (P37231 1-505 partner): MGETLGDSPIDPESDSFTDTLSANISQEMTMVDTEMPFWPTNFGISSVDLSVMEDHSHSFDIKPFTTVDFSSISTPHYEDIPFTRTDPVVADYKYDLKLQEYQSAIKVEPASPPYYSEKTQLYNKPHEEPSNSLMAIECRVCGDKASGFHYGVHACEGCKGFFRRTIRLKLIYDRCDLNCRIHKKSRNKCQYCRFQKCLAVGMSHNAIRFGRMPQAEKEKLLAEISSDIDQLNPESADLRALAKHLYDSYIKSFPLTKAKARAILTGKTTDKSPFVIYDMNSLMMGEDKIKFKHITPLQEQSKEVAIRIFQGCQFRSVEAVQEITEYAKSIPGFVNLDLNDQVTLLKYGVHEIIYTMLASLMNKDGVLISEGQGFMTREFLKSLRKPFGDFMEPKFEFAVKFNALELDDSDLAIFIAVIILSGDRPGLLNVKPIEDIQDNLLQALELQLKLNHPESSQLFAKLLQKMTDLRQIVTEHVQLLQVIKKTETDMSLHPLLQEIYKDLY
Excerpt: as §1
Heterodimer reporter assays are potentially more important selection criteria for synthetic agonistic NHR ligands as they embody a more natural situation. Basically plasmids expressing the recombinant full length NHR are co-transfected with plasmids expressing the full length RXR heteropartner receptor and a reporter plasmid containing several copies of the natural responsive elements for the respective NHR driving the luciferase reporter gene.

RXRβ = target: T3, RXRβ (Homo sapiens, UniProt P28702); assay: Retinoid activation assay, RXRβ (Schneider SL-3 cells, luciferase reporter); format: cell-based; conditions: read-out: Activation EC50 RXR β
T3 construct: Full length RXR cDNA is used for transfection; expressed in transfected cells; host or cells: Schneider SL-3 cells (Drosophila)
T3 sequence (P28702 1-533): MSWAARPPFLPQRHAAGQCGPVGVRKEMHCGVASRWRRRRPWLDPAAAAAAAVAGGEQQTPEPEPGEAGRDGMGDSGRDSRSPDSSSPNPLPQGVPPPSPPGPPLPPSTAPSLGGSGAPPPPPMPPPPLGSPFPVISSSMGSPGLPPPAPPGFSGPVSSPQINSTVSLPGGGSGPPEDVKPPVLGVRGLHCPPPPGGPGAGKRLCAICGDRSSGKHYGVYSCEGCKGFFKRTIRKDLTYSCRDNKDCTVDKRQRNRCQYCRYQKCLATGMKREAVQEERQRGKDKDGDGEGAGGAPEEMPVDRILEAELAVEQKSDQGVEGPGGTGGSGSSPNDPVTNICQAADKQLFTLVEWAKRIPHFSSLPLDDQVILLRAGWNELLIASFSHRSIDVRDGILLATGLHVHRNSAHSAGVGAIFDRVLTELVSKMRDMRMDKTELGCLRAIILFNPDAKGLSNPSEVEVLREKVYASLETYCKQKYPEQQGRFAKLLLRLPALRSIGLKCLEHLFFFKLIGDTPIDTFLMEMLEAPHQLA
Description: (§2) Full length RXR cDNA is used for transfection. As reporter system, the luciferase gene is used in a construct with three copies of a RXR response element from rat CRBP gene, (formerly RARE from betaRAR gene), fused to alcoholdehydrogenase gene promoter in the plasmid pGL2-basic. Schneider SL-3 cells from Drosophila are transiently transfected 3-4 h before the experiment by the Ca-phosphate-DNA coprecipitation method. […] At the end of the incubation, the cell supernatants are assayed for luciferase activity. Results are given as EC50 (nM), the concentration leading to half-maximal activation.

RXRα [1] = target: T4, RXRα (Homo sapiens, UniProt P19793); assay: Retinoid activation assay, RXRα (Schneider SL-3 cells, luciferase reporter); format: cell-based; conditions: read-out: Activation EC50 RXR α
T4 sequence (P19793 1-462): T1 sequence (P19793 1-462)
Description: as §2

RXRγ [2] = target: T5, RXRγ (Homo sapiens, UniProt P48443); assay: Retinoid binding assay, RXRγ; set-up: made in house; host or cells: E. coli; conditions: [3H] 9-cis retinoic acid 20 nM; read-out: Binding Affinity IC50 RXR γ
T5 sequence (P48443 1-463): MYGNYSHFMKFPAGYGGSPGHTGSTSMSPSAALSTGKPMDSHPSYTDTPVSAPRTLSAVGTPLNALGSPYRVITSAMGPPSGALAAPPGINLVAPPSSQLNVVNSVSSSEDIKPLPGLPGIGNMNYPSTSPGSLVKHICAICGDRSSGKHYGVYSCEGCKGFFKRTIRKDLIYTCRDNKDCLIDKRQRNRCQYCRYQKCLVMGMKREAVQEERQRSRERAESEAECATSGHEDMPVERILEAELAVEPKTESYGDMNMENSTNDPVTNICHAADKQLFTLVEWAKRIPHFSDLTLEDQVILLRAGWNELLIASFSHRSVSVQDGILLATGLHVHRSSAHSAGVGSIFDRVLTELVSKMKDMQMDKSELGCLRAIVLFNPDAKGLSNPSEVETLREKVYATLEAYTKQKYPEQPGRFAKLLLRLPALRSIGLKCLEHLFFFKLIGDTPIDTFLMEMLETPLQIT
Excerpt: (§3) The DEF domains of RAR's and the full length RXR's, expressed in E.coli, are used to measure competitive retinoid binding. […] 9-cis retinoic acid (for RXR's), respectively. […] Separation of bound from free radioactivity is achieved by charcoal/dextran (RAR's) or by desalting columns (RXR's). […] Retinoid Activation Assays

RXRγ [3] = target: T5, RXRγ; assay: Retinoid activation assay, RXRγ (Schneider SL-3 cells, luciferase reporter); format: cell-based; conditions: read-out: Activation EC50 RXR γ
Description: as §2

RXRα [4] = target: T4, RXRα; assay: Retinoid binding assay, RXRα; set-up: made in house; host or cells: E. coli; conditions: [3H] 9-cis retinoic acid 20 nM; read-out: Binding Affinity IC50 RXR α
Excerpt: as §3

RARβ = target: T6, RARβ (Homo sapiens, UniProt P10826); assay: Retinoid binding assay, RARβ; set-up: The DEF domains of RAR's and the full length RXR's, expressed in E.coli; made in house; host or cells: E. coli; conditions: read-out: Binding Affinity IC50 RAR β
T6 sequence (P10826 183-417 limits assumed): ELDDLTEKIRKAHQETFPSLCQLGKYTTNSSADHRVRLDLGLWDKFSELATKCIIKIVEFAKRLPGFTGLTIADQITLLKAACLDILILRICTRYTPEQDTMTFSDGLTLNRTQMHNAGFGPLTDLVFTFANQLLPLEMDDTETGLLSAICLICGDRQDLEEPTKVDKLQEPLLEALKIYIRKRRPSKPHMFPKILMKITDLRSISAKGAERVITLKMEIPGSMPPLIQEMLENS
Excerpt: as §3

RARα = target: T7, RARα (Homo sapiens, UniProt P10276); assay: Retinoid binding assay, RARα; set-up: The DEF domains of RAR's and the full length RXR's, expressed in E.coli; made in house; host or cells: E. coli; conditions: read-out: Binding Affinity IC50 RAR α
T7 sequence (P10276 183-417 limits assumed): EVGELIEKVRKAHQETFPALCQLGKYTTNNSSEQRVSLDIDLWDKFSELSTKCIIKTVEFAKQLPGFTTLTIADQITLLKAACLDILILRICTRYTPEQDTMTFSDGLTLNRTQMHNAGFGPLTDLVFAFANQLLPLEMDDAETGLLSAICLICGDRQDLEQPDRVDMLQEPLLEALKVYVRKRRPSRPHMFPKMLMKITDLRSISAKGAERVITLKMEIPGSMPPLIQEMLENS
Excerpt: as §3

RARγ = target: T8, RARγ (Homo sapiens, UniProt P13631); assay: Retinoid binding assay, RARγ; conditions: read-out: Binding Affinity IC50 RAR γ
T8 construct: The DEF domains of RAR's and the full length RXR's, expressed in E.coli; made in house; host or cells: E. coli
T8 sequence (P13631 185-419 limits assumed): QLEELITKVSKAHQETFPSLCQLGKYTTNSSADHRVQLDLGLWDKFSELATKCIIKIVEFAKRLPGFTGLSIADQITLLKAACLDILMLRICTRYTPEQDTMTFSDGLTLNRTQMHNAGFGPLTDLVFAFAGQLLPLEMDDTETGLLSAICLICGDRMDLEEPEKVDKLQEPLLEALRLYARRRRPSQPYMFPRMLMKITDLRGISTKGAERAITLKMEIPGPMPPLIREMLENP
Excerpt: as §3

EC50 (RXRα Homodimer) [nM]	EC50 (PPARγ/RXRα Heterodimer) [nM]	EC50 (RXRβ) [nM]	EC50 (RXRα [1]) [nM]	IC50 (RXRγ [2]) [nM]	EC50 (RXRγ [3]) [nM]	IC50 (RXRα [4]) [nM]	IC50 (RARβ) [nM]	IC50 (RARα) [nM]	IC50 (RARγ) [nM]	Compound
2	10	17	2.1	56	37	65				CCc1cc2c(cc1\C(C)=C/C=C/C(C)=C/C(=O)O)CCCC2C (racemic) [Compound 11, (2E,4E,6Z)-(RS)-7-(3-Ethyl-5-methyl-5,6,7,8-tetrahydro-naphthalen-2-yl)-3-methyl-octa-2,4,6-trienoic acid]
> 10000	> 30	> 10000	> 10000	700	> 10000	300				CCCOc1cc2c(cc1[C@@H]1C[C@@H]1/C=C/C(C)=C/C(=O)O)C(C)(C)CCC2(C)C (racemic) [Compound 22, (2E,4E)-3-Methyl-5-[(1RS,2RS)-2-(5,5,8,8-tetramethyl-3-propoxy-5,6,7,8-tetrahydro-naphthalen-2-yl)-cyclopropyl]-penta-2,4-dienoic acid]
2.6	6	28	2.6	122	65	110				CC(/C=C/[C@@H]1C[C@@H]1c1ccc2c(c1)C(C)(C)CCC2(C)C)=C\C(=O)O (stereo in doubt) [Compound 10, (2E,4E)-3-Methyl-5-[(1S,2S)-2-(5,5,8,8-tetramethyl-5,6,7,8-tetrahydro-naphthalen-2-yl)-cyclopropyl]-penta-2,4-dienoic acid]
		> 10000		68	> 10000		3500	3100	2800	CCCOc1cc2c(cc1\C(C)=C/C=C/C(C)=C/C(=O)O)C(C)(C)CCC2(C)C [Compound 23, (2E,4E,6Z)-3-Methyl-7-(5,5,8,8-tetramethyl-3-propoxy-5,6,7,8-tetrahydro-naphthalen-2-yl)-octa-2,4,6-trienoic acid]
